Laboratory results: patent publication US9597280B2, “Cosmetic compositions comprising microalgal oil” (TerraVia Holdings, Inc., priority 2013, dated 2017)

How the values were obtained:
[1] = test system: MatTek's EpiDerm tissue; experiment: MTT (viability) assay in EpiDerm skin tissue model after UVB exposure; assay type: cell-based, human; settings: positive control, topical 24 hours after UVB 300 mJ/cm2; mean ± standard deviation; significantly different from Untreated (p < 0.05)
Text: Oil was extracted from heterotrophically cultivated Chlorella protothecoides followed by refining, bleaching and deodorization. A skin tissue model was used to evaluate changes in tissue viability after exposure to UVB radiation. The testing system used for this assay was MatTek's EpiDerm tissue, a skin model that consists of normal human-derived epidermal keratinocytes cultured to form a multilayered, highly differentiated model of the human epidermis. For this study, the tissues were exposed to UVB (300 mJ/cm2) and then treated topically for 24 hours with the test material. Following the treatment tissue changes in tissue viability were determined using an MTT assay. […] Reduction of MTT by mitochondria in viable cells results in the formation of insoluble purple formazin crystals that are extracted from the cells with isopropanol and quantified spectrophotometrically. […] UVB lamp intensity was measured using a UVX radiometer with a probe specific for UVB (detects 260-360 nm, max absorbance at 310 nm, calibrated at 310 nm) to determine exposure times required for the appropriate UVB dose. […] After the extraction, a 200 μl sample of the isopropanol/MTT mixture was transferred to a 96-well plate and the absorbance of the sample was read at 540 nm with a plate reader using 200 μl of isopropanol as the blank. […] Values are expressed as means±standard deviation.

[2] = test system: MatTek's EpiDerm tissue; experiment: Thymine dimer formation in EpiDerm skin tissue model after UVB exposure; assay type: cell-based, human; settings: positive control, topical 24 hours after UVB 300 mJ/cm2; mean ± standard deviation; significantly different from Untreated (p < 0.05)
Description: Oil was extracted from heterotrophic ally cultivated Chlorella protothecoides followed by refining, bleaching and deodorization. The oil was tested for its ability to prevent thymine dimerization in a skin tissue model upon exposure to UVB (ultraviolet light of the B type). The testing system used for this assay was MatTek's EpiDerm tissue, a skin model that consists of normal human-derived epidermal keratinocytes cultured to form a multilayered, highly differentiated model of the human epidermis. For this study, the tissues were exposed to UVB (300 mJ/cm2) and then treated topically for 24 hours with the test material. Following the treatment the DNA was extracted from the EpiDerm tissues and assayed for thymine dimer content. […] The primary antibody was then detected using a secondary antibody conjugated to a fluorescent dye. […] With this method, the fluorescence intensity of each sample is proportional to the amount of the thymine dimers present in the sample. […] UVB lamp intensity was measured using a UVX radiometer with a probe specific for UVB (detects 260-360 nm, max absorbance at 310 nm, calibrated at 310 nm) to determine exposure times required for the appropriate UVB dose. […] Extracted DNA was quantified via a fluorometric assay. […]

Cc1c(C)c2c(c(C)c1O)CCC(C)(C(=O)O)O2 (centres unmarked) [Trolox, 6-hydroxy-2,5,7,8-tetramethylchroman-2-carboxylic acid]
Viability (Percent of Non-UVB Exposed) [1]: 100 ± 1.3% of Non-UVB Exposed | Thymine Dimer Formation, Corrected RFU [2]: 5198 ± 513 RFU
